Source: BindingDB's records for doi:10.1016/j.bmcl.2011.12.066 (Daiichi Sankyo, 2012)

Biological target: T1, Peroxisome proliferator-activated receptor gamma (Homo sapiens, UniProt P37231)
T1 sequence (P37231 whole entry): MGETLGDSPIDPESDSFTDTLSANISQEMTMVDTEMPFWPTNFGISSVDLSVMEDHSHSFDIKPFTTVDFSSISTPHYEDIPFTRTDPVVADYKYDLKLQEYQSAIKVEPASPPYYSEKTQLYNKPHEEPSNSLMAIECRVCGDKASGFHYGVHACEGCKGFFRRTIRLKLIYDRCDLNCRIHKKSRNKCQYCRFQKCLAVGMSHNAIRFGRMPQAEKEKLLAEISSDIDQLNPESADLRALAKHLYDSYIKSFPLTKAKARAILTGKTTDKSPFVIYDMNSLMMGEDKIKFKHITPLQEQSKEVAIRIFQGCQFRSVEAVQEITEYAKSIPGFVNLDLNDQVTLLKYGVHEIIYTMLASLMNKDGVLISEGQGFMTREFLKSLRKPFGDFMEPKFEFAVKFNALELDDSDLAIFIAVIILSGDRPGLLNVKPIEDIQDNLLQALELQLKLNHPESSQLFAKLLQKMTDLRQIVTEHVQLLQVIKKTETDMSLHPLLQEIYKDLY
Experiment: Partial agonist activity at human PPARgamma expressed in MG-63 cells by reporter gene-based transactivation assay

Structure (SMILES)	EC50 [µM]
COc1cc(O)c2c(c1C(=O)NCc1cc(O)cc3ccccc13)OC1=CC(=O)C(C(C)=O)C(=O)[C@]12C (some centres not stated)	0.13
COC(=O)CCc1cc(CNC(=O)c2c(OC)cc(O)c3c2OC2=CC(=O)C(C(C)=O)C(=O)[C@]23C)c2ccccc2c1 (some centres not stated)	0.13
